# Measurements taken from patent publication US20180042874A1, “METHOD FOR TREATING OSTEOPOROSIS” (China Medical University, priority 2016, published 2018).
# How the values were obtained:
# [1] = Liver and kidney toxicity in ovariectomized osteoporosis rat model; format: in vivo, Sprague-Dawley (SD) female rats; settings: ovariectomized rats, compared to commercially available drugs
# Experimental: Inducing osteoporosis animal models and experimental methods: • 1. 6-month old Sprague-Dawley (SD) female rats were purchased; • 2. These rats were divided into 7 groups, of which Group 1 was given pseudo-surgery, Group 2-7 underwent bilateral ovariectomies; • 3. […] Body weight and bone density were measured weekly, blood was drawn until the 118th day; • 5. Rats were then sacrificed to obtain kidneys, livers and rat tibia; • 6. Data were consolidated and processed. [table]
# p38 = assay: Western blot of MAPK pathway, phosphorylated p38; format: cell-based, mouse; settings: 10 μg/ml co-treated with 100 ng/ml RANKL, 0-60 minutes
# Experimental: (§1) The effect of the compound of formula I on the protein expression of osteoclast MAPKs pathways induced by receptor activator of nuclear factor κB ligand was studied, experiments were performed by using the Western blot method; RAW 264.7 cells were rinsed in ice-cold PBS, cell lysis buffer was added, the components of the buffer solution included: 10 mM 4-(2-hydroxyethyl)-1-piperazineethanesulfonic acid (HEPES), 1.5 mM MgCl2, 0.5 mM dithiothreitol (DTT), 0.5 μg/ml leupeptin and 6.4% Nonidet P-40, reacted on ice for 15 minutes. The cells were scraped off with a spatula, collected into a 1.5 ml centrifuge tube, the cells were thoroughly broken by using a shaker; centrifuged at 12,000 rpm, 4° C. for 10 minutes; supernatant was added into a new 1.5 ml centrifuge tube; boiled with IX sodiumdodecyl sulfate (SDS) sample buffer, followed by electrophoresis using 10 to 12% SDS-PAGE. […] The transfer membrane was rinsed again and the membrane loaded with chemical luminescence reagent ECL was allowed to react with a photosensitive sheet in a darkroom for a suitable period of time, the photosensitive sheet then reacted with the developer. After the photosensitive sheet was exposed to light a band-shaped antibody-binding proteins was observed, quantified by the density of the bands. […]
# [2] = system: osteolytic activity of osteoclast cells induced by receptor activator of nuclear factor κB ligand; assay: Osteolytic activity of osteoclasts on corning osteo assay surface plate; format: cell-based, mouse; settings: 10 μg/ml co-treated with 100 ng/ml RANKL, 12 days
# Source text: Effect of the compound of formula I on receptor activator of nuclear factor κB ligand-induced osteocytic activity of the osteoclast cells Osteoclast is a multinuclear cell, which differentiates because of the stimulation of macrophage colony stimulating factor and receptor activator of nuclear factor κB ligand, after differentiation the folds on the edge of the osteoclast form a resorption groove on the cell membrane and the bone surface is […]. In this space, the […] secretes some enzymes and acids. These acids activate the enzymes to initiate osteolysis of bone mineral matrix. […]
# In order to confirm the effect of the compound of formula I on the bone resorption capability of differentiated osteoclasts, RAW 264.7 cells were cultured in a 24-well plate (osteo assay plate, 24 well; corning incorporated) containing artificial bone material, the cell number of each well was 2×10^3 cell/ml. […] The number of grooves per each well was counted under a microscope 40× and further photographed for observation.
# [3] = Body weight in ovariectomized osteoporosis rat model; format: in vivo, Sprague-Dawley (SD) female rats; settings: rat, in vivo
# Experimental: (§2) Inducing osteoporosis animal models and experimental methods: • 1. 6-month old Sprague-Dawley (SD) female rats were purchased; • 2. These rats were divided into 7 groups, of which Group 1 was given pseudo-surgery, Group 2-7 underwent bilateral ovariectomies; • 3. On the 6th day after surgery, 1 mL/kg of vehicle alone was given orally to Group 1, Group 2 daily, Zoledronic Acid and Prolia were administered weekly by injections to Group 3, Group 4, respectively; 1, 3, 10 mg/kg of the compound of formula I was given orally every 3 days to Groups 5-7, respectively; • 4. Body weight and bone density were measured weekly, blood was drawn until the 118th day; • 5. Rats were then sacrificed to obtain kidneys, livers and rat tibia; • 6. Data were consolidated and processed.
# NFATc2 = assay: Western blot of MAPK downstream protein NFATc2; format: cell-based, mouse; settings: 10 μg/ml co-treated with 100 ng/ml RANKL, 48 hours
# Experimental: as §1
# ovariectomized rats = assay: Bone density in ovariectomized osteoporosis rat model; format: in vivo, Sprague-Dawley (SD) female rats
# Experimental: as §2
# c-Fos = assay: Western blot of MAPK downstream protein c-Fos; format: cell-based, mouse; settings: 10 μg/ml co-treated with 100 ng/ml RANKL, 48 hours
# Experimental: as §1
structure (smiles),measurement,setting,value
"CNC(=O)N[C@]1(C)CCC[C@@]2(C)C3CC[C@@]4(C)C[C@]3(CCC21)CC4=O (single isomer, unassigned; ent-16) [compound of formula I, ent-16-oxobeyeran-19-N-methylureido]","cytotoxicity in kidney (blood urea nitrogen, plasma creatinine)",[1],less cytotoxicity in kidney than Zoledronic acid
same,cytotoxicity in liver (alanine aminotransferase),[1],less cytotoxicity in liver than Proliaor
same,expression of phosphorylated p38,p38,decreased
same,eroded area of the artificial bone material,[2],substantially reduced
same,osteolytic activity of osteoclast cells,[2],inhibited
same,effect on body weight,[3],different from commercially available drugs
same,NFATc2 protein expression,NFATc2,significantly reduced
same,effect on reduced tibial bone density caused by ovarian removal,"ovariectomized rats; ovariectomized rats, 1, 3, 10 mg/kg PO once every 3 days, 19 weeks after ovarian removal",improve the reduced tibial bone density
same,increase of tibial bone density,"ovariectomized rats; ovariectomized rats, PO once every 3 days, as compared to the experimental group",10%
same,c-Fos protein expression,c-Fos,significantly reduced
